US20130030025A1, “USE OF POTASSIUM CHANNEL BLOCKERS TO TREAT CEREBRAL PALSY” (priority 2011, published 2013)
Several values for one entry are separate records, joined by “and”; a condition that tells them apart may be missing. Identical values can stand only once. Entries after “also recorded” stand apart in the source; their conditions may differ.

Key:
Assay type in all cases: in vivo, Sprague Dawley rats
[1] = tested on: middle cerebral artery occlusion (MCAO) in rats; experiment: Cylinder test, overall limb-use asymmetry (%) after MCAO; conditions: for Cylinder Test Score (Overall Asymmetry (%)): individual animals
Procedure: (§1) 4-AP was evaluated for its ability to promote functional sensorimotor improvement following ischemic stroke in rats with stable motor deficits at times remote from their ischemic events. The animal model mimics the conditions in human ischemic stroke and is produced by middle cerebral artery occlusion (MCAO), which results in extensive infarction in cerebral cortex and striatum, including the cortical spinal tract (white matter). In particular, the MCAO model in Sprague Dawley rats that was utilized in the experiments presented below mimics the conditions in human ischemic stroke. In this experiment, Sprague Dawley rats were anesthetized, subjected to a surgery resulting in middle cerebral artery occlusion (MCAO), treated with and without 4-aminopyridine and behavioral assessments were performed as described below. Surgical Procedure: A small focal stroke (infarct) was made on the right side of the surface of the brain (cerebral cortex) by middle cerebral artery occlusion (MCAO). The right side of the head was shaved with electric clippers (patch of approx 3×5 cm between eye and ear). The region was carefully cleaned with septisol. Using aseptic technique, an incision was made midway between the eye and eardrum canal. The temporalis muscle was isolated, bisected, and reflected. A small window of bone was removed via drill and rongeurs (subtemporal craniectomy) to expose the middle cerebral artery (MCA). Care was taken not to remove the zygomatic arch or to transect the facial nerve that would impair the ability of the animal to chew after surgery. […] The MCA was then transected. The temporalis muscle was then repositioned, and the incision was closed subcutaneously with sutures. The skin incision was closed with surgical staples (2-3 required). Throughout the procedure, body temperature was maintained at 37.0°±1° C., using a self-regulating heating pad connected to a rectal thermometer. Dosing: Rats were treated in accordance with the dosing schedule shown in Tables 1A, 1B, and FIG. 2, with each Phase being a two week period of time. A solution of 4-AP was used in this experiment. Dosing was started at 4 weeks after ischemic event. Treatment groups: Dosing was started 4 weeks after pMCAO surgery. During these 4 weeks, weekly behavioral assessments, as defined below, were performed. Two dose levels of 4-AP plus vehicle control were assessed, with treatment starting at 4 weeks after ischemic event. All dosing was via gastric gavage, volume not to exceed 2 mL/kg. Animals were given the first dose and behavioral assessments were performed starting 60 minutes after dosing. Animals then received the second dose that day at the appropriate time and b.i.d (preferably every 12 hours) thereafter for 2 more days (3 total days of dosing, 5 total doses). One hour after the 5th dose, animals were subjected to behavioral assessments as defined below. Following the final behavioral assessment, drug was withdrawn for 10 or 11 days, behavior was re-assessed, and then animals were re-challenged with a cross-over treatment (Phase II of Table 1B) as described in Tables 1A, 1B, followed by the same behavioral testing and dosing regimen. This cross-over was repeated one more time as well (Phase III of Table 1B) (see FIG. 2). Behavioral test details: Behavioral evaluations were done by investigators blinded to treatment assignment. As described above, behavioral assessments were timed exactly with dosing times. Animals were given the first dose, behavioral assessments were performed starting 60 minutes later, and blood was collected 90 minutes after dosing. Animals then received the second dose that day at the appropriate time and b.i.d (preferably every 12 hours) thereafter for 2 more days (3 total days of dosing, 5 total doses). One hour after the 5th dose, animals were subjected to behavioral testing. […]

[2] = tested on: middle cerebral artery occlusion (MCAO) in rats; experiment: Body swing test (% right swing) after MCAO
Procedure: as §1

[3] = tested on: middle cerebral artery occlusion (MCAO) in rats; experiment: Hindlimb placing test after MCAO; set-up: Hindlimb Placing Total Score, Mean: scale not given here
Procedure: as §1

[4] = group mean N=15, Group I, Phase 2, D44, Low 4-AP 0.63 mg/kg b.i.d. p.o., after first dose
[5] = Group II, D30, individual animals
[6] = Group II, D32, individual animals
[7] = Group II, D58, individual animals
[8] = Group II, D60, individual animals
[9] = Group III, D44, high dose phase (inferred), mean of N 15
[10] = Group III, D46, high dose phase (inferred), mean of N 15
[11] = Group III, D58, low dose phase (inferred), mean of N 15
[12] = Group III, D60, low dose phase (inferred), mean of N 15

**Q.** Which results are given for Nc1ccncc1 [4-AP, 4-aminopyridine]?
**A.** Cylinder Test Score (Overall Asymmetry (%)), Mean ([1]; Group II, D30, first dosing phase (low dose, inferred)): 26.98%; Cylinder Test Score (Overall Asymmetry (%)), Mean ([1]; Group II, D32, first dosing phase (low dose, inferred)): 23.50%; Cylinder Test Score (Overall Asymmetry (%)), Mean ([1]; Group II, D58, third dosing phase (high dose, inferred), N 12): 35.52%; Cylinder Test Score (Overall Asymmetry (%)), Mean ([1]; Group II, D60, third dosing phase (high dose, inferred), N 14): 4.43%; Cylinder Test Score (Overall Asymmetry (%)), Mean ([1]; Group III, D44, second dosing phase (high dose, inferred), N 13): 27.98%; Cylinder Test Score (Overall Asymmetry (%)), Mean ([1]; Group III, D46, second dosing phase (high dose, inferred), N 13): 10.17%; Cylinder Test Score (Overall Asymmetry (%)), Mean ([1]; Group III, D58, third dosing phase (low dose, inferred)): 12.32%; Cylinder Test Score (Overall Asymmetry (%)), Mean ([1]; Group III, D60, third dosing phase (low dose, inferred)): 3.23%; Cylinder Test Score (Overall Asymmetry (%)), Mean ([1]; group mean N=10, Group I, Phase 1, D30, High 4-AP 2.0 mg/kg b.i.d. p.o., after first dose): 17.78%; Cylinder Test Score (Overall Asymmetry (%)), Mean ([1]; group mean N=13, Group I, Phase 1, D32, High 4-AP 2.0 mg/kg b.i.d. p.o., after 5th dose): −15.95%; Cylinder Test Score (Overall Asymmetry (%)), Mean ([1]; group mean N=13, Group I, Phase 2, D46, Low 4-AP 0.63 mg/kg b.i.d. p.o., after 5th dose): 16.29%; Cylinder Test Score (Overall Asymmetry (%)), Mean [1, 4]: 10.38%; Cylinder Test Score (Overall Asymmetry (%)) ([1]; Group I, Phase 1, D30, High 4-AP 2.0 mg/kg b.i.d. p.o., after first dose): 9.33% and 0.00% and 50.00% (3×) and 16.67% and 38.46% and −16.67% and −100.00% and 80.00%; Cylinder Test Score (Overall Asymmetry (%)) ([1]; Group I, Phase 1, D32, High 4-AP 2.0 mg/kg b.i.d. p.o., after 5th dose): 36.36% and 24.07% and 22.73% and 5.13% and −30.00% and −100.00% (2×) and 50.00% (2×) and −60.00% and −65.79% and 16.67% and −56.52%; Cylinder Test Score (Overall Asymmetry (%)) ([1]; Group I, Phase 2, D44, Low 4-AP 0.63 mg/kg b.i.d. p.o., after first dose): 60.71% and 25.81% and 39.58% and 22.81% and 31.91% and 33.33% (2×) and 39.02% and −45.45% and −60.00% and −56.06% and 40.00% and 9.30% and 10.00% and −28.57%; Cylinder Test Score (Overall Asymmetry (%)) ([1]; Group I, Phase 2, D46, Low 4-AP 0.63 mg/kg b.i.d. p.o., after 5th dose): 63.64% and 14.89% and 30.23% and 33.33% (3×) and 36.96% and −8.33% (2×) and 25.00% and −100.00% and 50.00% and 7.69%; effect on body symmetry and coordination (cylinder test) ([1]; rats after MCAO, reversible and dose-dependent): effective to improve the asymmetry in limb usage; Body Swing Test (% right Swing) ([2]; Group I, D30, individual animals): 33.33% (3×) and 53.33% and 40.00% (2×) and 30.00% and 36.67% (5×) and 43.33% and 26.67% and 46.67%; Body Swing Test (% right Swing), Mean ([2]; Group I, D30, mean of N 15): 37.56%; Body Swing Test (% right Swing) ([2]; Group I, D32, individual animals): 43.33% (2×) and 50.00% (3×) and 53.33% (3×) and 26.67% and 33.33% (3×) and 40.00% (2×) and 30.00%; Body Swing Test (% right Swing), Mean ([2]; Group I, D32, mean of N 15): 42.22%; Body Swing Test (% right Swing) ([2]; Group I, D44, low dose phase (inferred), individual animals): 33.33% (3×) and 56.67% and 43.33% (3×) and 26.67% (2×) and 50.00% and 40.00% (2×) and 46.67% and 30.00% (2×); Body Swing Test (% right Swing), Mean ([2]; Group I, D44, low dose phase (inferred), mean of N 15): 38.44%; Body Swing Test (% right Swing) ([2]; Group I, D46, individual animals): 36.67% (3×) and 43.33% (4×) and 33.33% (3×) and 30.00% and 53.33% and 20.00% (2×) and 40.00%; Body Swing Test (% right Swing), Mean ([2]; Group I, D46, mean of N 15): 36.44%; Body Swing Test (% right Swing) [2, 5]: 20.00% and 40.00% and 16.67% and 30.00% and 36.67% and 33.33% (2×) and 23.33% and 53.33% and 26.67%; Body Swing Test (% right Swing), Mean ([2]; Group II, D30, mean of N 15): 32.89%; Body Swing Test (% right Swing) [2, 6]: 33.33% (5×) and 40.00% and 43.33% (2×) and 30.00% and 46.67%; Body Swing Test (% right Swing), Mean ([2]; Group II, D32, mean of N 15): 37.78%; Body Swing Test (% right Swing) [2, 7]: 46.67% (3×) and 33.33% (3×) and 26.67% and 40.00% and 43.33% and 50.00%; Body Swing Test (% right Swing), Mean ([2]; Group II, D58, mean of N 15): 40.67%; Body Swing Test (% right Swing) [2, 8]: 43.33% and 40.00% (2×) and 33.33% (2×) and 46.67% (2×) and 36.67% and 50.00% (2×); Body Swing Test (% right Swing), Mean ([2]; Group II, D60, mean of N 15): 42.67%; Body Swing Test (% right Swing), Mean [2, 9]: 39.56%; Body Swing Test (% right Swing), Mean [2, 10]: 40.44%; Body Swing Test (% right Swing), Mean [2, 11]: 34.89%; Body Swing Test (% right Swing), Mean [2, 12]: 35.11%; effect on global body control (body swing test) ([2]; low or high dose, rats after MCAO, reversible and dose-dependent): effective to improve the percentage of rightward over total swings; also recorded: significant improvement; Hindlimb Placing Total Score [3, 5]: 2.50 and 1.50 (4×) and 2.00 (3×) and 1.00 and 0.50; Hindlimb Placing Total Score, Mean ([3]; Group II, D30, mean of N 15): 1.73; Hindlimb Placing Total Score [3, 6]: 2.00 and 1.00 (3×) and 1.50 (5×) and 0.50; Hindlimb Placing Total Score, Mean ([3]; Group II, D32, mean of N 15): 1.37; Hindlimb Placing Total Score [3, 7]: 2.00 and 0.00 (4×) and 1.00 and 1.50 (3×) and 0.50; Hindlimb Placing Total Score, Mean ([3]; Group II, D58, mean of N 15): 0.83; Hindlimb Placing Total Score [3, 8]: 0.50 (3×) and 0.00 (6×) and 1.00; Hindlimb Placing Total Score, Mean ([3]; Group II, D60, mean of N 15): 0.23; Hindlimb Placing Total Score, Mean [3, 9]: 0.90; Hindlimb Placing Total Score, Mean [3, 10]: 0.30; Hindlimb Placing Total Score, Mean [3, 11]: 0.80; Hindlimb Placing Total Score, Mean [3, 12]: 0.70; Hindlimb Placing Total Score, Mean ([3]; group mean N=15, Group I, Phase 1, D30, High 4-AP 2.0 mg/kg b.i.d. p.o., after first dose): 1.67; Hindlimb Placing Total Score, Mean ([3]; group mean N=15, Group I, Phase 1, D32, High 4-AP 2.0 mg/kg b.i.d. p.o., after 5th dose): 0.97; Hindlimb Placing Total Score, Mean [3, 4]: 1.33; Hindlimb Placing Total Score, Mean ([3]; group mean N=15, Group I, Phase 2, D46, Low 4-AP 0.63 mg/kg b.i.d. p.o., after 5th dose): 1.13; Hindlimb Placing Total Score ([3]; individual animals, Group I, Phase 1, D30, High 4-AP 2.0 mg/kg b.i.d. p.o., 60 min after first dose, 0=normal, 6=maximally impaired): 1.50 (7×) and 3.00 (2×) and 2.50 (2×) and 2.00 and 1.00 and 0.00 and 0.50; Hindlimb Placing Total Score ([3]; individual animals, Group I, Phase 1, D32, High 4-AP 2.0 mg/kg b.i.d. p.o., 1 h after 5th dose, 0=normal, 6=maximally impaired): 1.00 and 3.00 and 1.50 (6×) and 0.00 (4×) and 0.50 (3×); Hindlimb Placing Total Score ([3]; individual animals, Group I, Phase 2, D44, Low 4-AP 0.63 mg/kg b.i.d. p.o., 60 min after first dose, 0=normal, 6=maximally impaired): 2.00 (4×) and 3.00 and 1.50 (3×) and 0.50 (2×) and 0.00 (3×) and 2.50 and 1.00; Hindlimb Placing Total Score ([3]; individual animals, Group I, Phase 2, D46, Low 4-AP 0.63 mg/kg b.i.d. p.o., 1 h after 5th dose, 0=normal, 6=maximally impaired): 2.00 (3×) and 3.00 and 1.50 (4×) and 0.00 (4×) and 0.50 (2×) and 1.00; effect on hindlimb function (hindlimb placing test) ([3]; low or high dose, 4 weeks post ischemic brain injury, rats, dose responsive, reversible): effective to improve hindlimb function; also recorded: significant improvement
